Here are results for 90 compounds from a melting point compilation (Tetko et al.; mined from patent text by program, amines drawn as free bases though some values may be those of a salt).

SMILES strings stand for the structures. Starred links: 1 amine or outer side, 2 acyl side, 3 side chain; linkers in the order of their positions; H or OH if unused. Non-standard residues stand in square brackets, D forms with d. Residues, ends and D or L forms follow the SMILES beside them. *: point of attachment. Hyp = O=C(O)[C@@H]1C[C@@H](O)CN1; βNA = c1ccc2cc(N*)ccc2c1; 2Abz = Nc1ccccc1C(=O)O; CO = O=C([*:1])[*:2]; Bn = c1ccc(C*)cc1 A value given as a limit tells only on which side of the number the result lay.

In turn, `Cc1cc(C2C3=C(CCS3)NC3=C2C(=O)CCC3)ccc1F` (stereo not given) yielded a melting point of more than 260 °C.

For the compound `Cc1cc(-c2sc(N3CCN(CC4CC4)C3=O)nc2C)n[nH]1`, the melting point lay in the range of 231 to 233 °C. `CC(=Cc1ccccc1)CN1CCc2nc(N)sc2CC1` displayed a melting point of 112 to 115 °C. `Cn1nc(-c2cc(F)c([N+](=O)[O-])cc2F)c(Br)c1C(F)(F)F` showed a melting point of 45.5 °C. In turn, `Nc1cc(=O)n(Cc2cccc(F)c2)[nH]1` displayed a melting point of 129 °C. `COC(=O)c1cccc(CNC(=O)C2Cc3ccccc3N2S(=O)(=O)c2ccc(-c3cccc(C(F)(F)F)c3)cc2)c1` (stereo not given) showed a melting point of 50 °C. Next, `Nn1cccc1C(=O)c1ccccc1Cl`: 76 to 78 °C; `CCOC(=O)C1=C(N)NC(N)=C(C(=O)OCC)C1c1cccc([N+](=O)[O-])c1`: 175 to 176 °C.

`Cc1ccc(S(=O)(=O)n2ccc3cccnc32)cc1` yielded a melting point of 136 to 138 °C. Next, `Nc1c(SC(F)(F)F)c(C=O)nn1-c1c(Cl)cc(CC(F)(F)F)cc1Cl`: 140 to 143 °C. For the compound `CN(C)C(=O)Nc1ccc(SCc2nc(Cl)ccc2Cl)cc1`, the melting point is 112 to 114 °C. The result for `CCOC(=O)/C=C/c1cccc(-c2c(CC(=O)Nc3ccc(F)cc3C(F)(F)F)c(=O)oc3cc(Cl)c(C)cc23)c1` reads 193 to 196 °C; that for `Nc1ccc(Oc2ccccc2-c2ccccc2Oc2ccc(N)c(N)c2)cc1N`, 172 to 174 °C; that for `O=c1oc(-c2cccc(OCCc3ccccc3)c2)cc(O)c1SCCc1ccccc1`, 104 to 106 °C. With `CC(C)(C)C(=O)C=Cc1ccc(Cl)cc1`, the melting point lay within 83 to 84 °C. As to `CC(Oc1cc(Cl)ccc1Br)C(=O)N(C)C` (stereo not given), the melting point was 76 to 77 °C. Next, `Cc1cncc(COc2cccc(C(N)=O)c2)c1`: 152 to 154 °C; `CCOC(=O)Cn1c(-c2ccc(Cl)cc2)nc2cccnc21`: 123 to 124 °C. In the case of `O=C(O)CCOCCCc1cccc(-c2nc(=O)c3ccccc3s2)n1`, the melting point was in the range of 141 to 142 °C. `O=C(N1CCOCC1)N1Cc2c(-c3noc(C4CC4)n3)ncn2-c2ccccc21` came in with a melting point of 198 °C. On to `CS(=O)(=O)c1ccccc1C(N)=O`, for which the melting point came to 149 °C.

As to `N#COc1ccc(C2(c3ccc(OC#N)cc3)OC(=O)c3ccccc32)cc1`, the melting point is 130 °C. Next, `CCC(C)C1C(=O)NC(=S)N1C(C)=O` (stereo not given): 132 to 133 °C; `COn1nnc2cc(Cn3ccnc3)ccc21`: 94.3 °C. `Cc1ccn(-c2ccc(C(=O)N3Cc4ccnn4Cc4ccccc43)c(Cl)c2)n1` registered a melting point of 187 to 188 °C. The result for `Cc1cc(-c2cc(C(F)(F)F)nn2-c2ccc(S(C)(=O)=O)cc2)ccc1-c1ccco1` reads 174 to 176 °C; that for `Cc1ccc(Cl)cc1N1CN(C(C)C)CN(C)C1=S`, 83 to 85 °C; that for `CC(=O)OC1CSC(Oc2ccc(-c3ccncc3)nc2)C(OC(C)=O)C1OC(C)=O` (stereo not given), 189 °C. `COC(=O)c1nc(N(C)Cc2ccccc2)ccc1Oc1nc(OC)cc(OC)n1`: the melting point was in the range of 73 to 75 °C. In the case of `COc1ccc(-c2nnn(-c3c(Cl)cc(Cl)cc3I)c2N)cc1`, the melting point was in the range of 72.5 to 73.6 °C. As to `Cc1cnc2c(NC(=O)c3c(Cl)cccc3Cl)cccc2c1-n1ccc(=O)cc1`, the melting point fell in the range of 280 to 282 °C. The result for `O=C1c2c(F)ccc(F)c2C(=O)N1CCN1CCC(c2noc3cc(F)ccc23)CC1` reads 144 to 145 °C; that for `Nc1ncnc2c1ncn2OCC(O)CCP(=O)(O)O` (stereo not given), 265 to 267 °C.

On to `COc1cnc(CSc2nc3cc(OCC(F)(F)F)ccc3[nH]2)cc1OC`, for which the melting point lay in the range of 55 to 57 °C. Take `CSc1nc2[nH]c3c(c(=O)n2n1)SCCC3`: the melting point was 314 to 318 °C. Compound `CCCCCCCCCCCCC(C)N(c1ccccc1)P(=O)(O)O` (stereo not given) yielded a melting point of 60 to 64 °C. Next, `CC(C)(C)c1cc(OCc2n[nH]c(=O)o2)cc(C(C)(C)C)c1O`: 138 to 140 °C; `CCN(CC)CC1COCCN1CCNC(=O)N1c2ccccc2C(=O)Nc2cccnc21` (stereo not given): 150 to 151 °C; `O=C(Nc1ccc2nc(CN3CCCCC3)ccc2c1)c1ccc(-c2ccc(Cl)cc2)cc1`: 211 to 213 °C. The result for `C=C1CC2C(CCC3(C)C2CCC3(O)C(=O)COC(C)=O)C2(C)CCC(=O)C=C12` (stereo not given) reads 194 to 196 °C; that for `O=C1Nc2ccccc2C1c1ncnc2c1cnn2C1CCCC1` (stereo not given), 228 to 231 °C.

`Cc1cc(N)ccc1N=Nc1ccc([N+](=O)[O-])cc1` had a melting point of 152 °C. `O=C(C=Cc1cccc([N+](=O)[O-])c1)N1CCc2c([nH]c3ccccc23)C1c1ccc2c(c1)CCO2` (stereo not given) yielded a melting point of 174 to 176 °C.

Consider `O=C(Nc1ccc(S(=O)(=O)c2ccncc2)cc1)C(O)(C(F)(F)F)C(F)(F)F`, for which the melting point lay in the range of 235 to 237 °C. Next, `COc1cc2c(c(OC)c1/C=C/c1ccc(CO)cc1)C(C)(C)CCC2(C)C`: 102 to 104 °C; `CCCCc1nc2ccccc2n1Cc1ccc(C#N)cc1`: 130 °C; `CN(C)CCNC(=O)N1CCN(c2ccc(Br)cc2)CC1`: 133 to 135 °C. Next, `CCOC(=O)c1cn(CCF)c2cc(F)c(F)cc2c1=O`: 178 to 180 °C. For `O=C1c2c(Cl)cccc2-n2cnc(-c3nnc(CCl)o3)c2[C@@H]2CCN12`, the melting point was in the range of 185 to 189 °C.

In turn, `CN1CC=C(c2c[nH]c3c(Cl)c(Cl)ccc23)CC1` gave a melting point of 246 to 249 °C. The result for `CSCCCCn1c(C)nc2c(N)nc3ccccc3c21` reads 190 to 193 °C. The result for `Cc1cc(-n2ccc(OCc3ccccc3)cc2=O)oc1C(=O)NCc1ccccc1` reads 191 to 192 °C. In turn, `Cc1c(C#N)cccc1C(=O)c1ccc(Cl)cc1` gave a melting point of 84 °C. With `COC(=O)CCC(=O)Nc1cccnc1`, the melting point was in the range of 78 to 79 °C. The result for `C=C(C)C1CCC2(CO)CCC3(C)C(CCC4C5(C)CCC(O)C(C)(CO)C5CCC43C)C12` (stereo not given) reads 256 to 260 °C. Next, `CCCn1ncnc1COc1nn2c(-c3ccc(F)cc3)nncc2c1-c1ccccc1F`: 148 °C. Next, `CCOC(=O)C(C(=O)c1ccc(OC)cc1)N(N)c1ccccn1` (stereo not given): 130 to 131 °C; `COC(=O)[C@H]1CCc2c(OC)cccc2[C@@H]1O`: 87 to 88 °C; `N#Cc1nn(-c2c(Cl)cc(C(F)(F)F)cc2Cl)c(N)c1-c1cc(Cl)oc1Cl`: 193 to 194 °C. Compound `COc1ccc(-n2c(C)nnc2S)cc1` displayed a melting point of 214 °C. The result for `O=[N+]([O-])c1cccc2[nH]ncc12` reads 172 to 174 °C; that for `CC(C)(C)c1ccc(C(N)=CC#N)cc1`, 74 to 75 °C. Compound `COc1ccc(-n2nc3c4c([nH]cc-3c2=O)CCCCCCCC4)cc1` returned a melting point of 143 to 150 °C. Next, `CN(C)CCCC1(O)c2ccccc2CCn2cccc21` (stereo not given): 68 to 70 °C. As for `CC(C(=O)O)c1ccc2oc(Cc3ccc(Cl)cc3)nc2c1` (stereo not given), the melting point is 135 to 137 °C.

`O=C(O)CC1CCc2c(cccc2OC2CCCCO2)C1` (stereo not given): the melting point lay in the range of 104 to 109 °C. Next, `O=S(=O)(c1ccccc1)c1ccc(N2CCNCC2)cn1`: 126 to 127 °C.

`O=C1c2ccccc2CCC1CNCC(O)c1cccc(O)c1` (stereo not given) gave a melting point of 140 to 143 °C.

Regarding `O=C/C=C/c1c(Cl)cc(Cl)cc1OCc1ccccc1`, the melting point lay in the range of 109 to 112 °C.

`COc1cc2c(cc1OC)CN(CCCOc1ccc(NC(=O)c3cccc4c(=O)c5ccccc5[nH]c34)cc1)CC2` displayed a melting point of 220 °C.

Consider `CCN(CC)CCN1C(=O)C(OC(C)=O)C(c2ccc(OC)cc2)Sc2c1ccc1ccccc21` (stereo not given), for which the melting point was in the range of 148 to 149 °C.

Consider `Cc1cccc(-c2nc(N)sc2-c2ccnc(-c3ccc(C(=O)N4CCOCC4)cc3)c2)n1`, for which the melting point lay in the range of 158 to 160 °C. `Cc1nc2sccn2c1C1=NNC(=O)NC1` displayed a melting point of 293 to 295 °C. In turn, `O=C(O)c1ccccc1NC(=O)[C@@H]1CCCN1C(=O)[C@@H]1C[C@@H](OCc2ccccc2)CN1C(=O)Nc1ccc2ccccc2c1` ({βNA-CO}-[Hyp](Bn)-Pro-[2Abz]-OH) yielded a melting point of 156 °C.

Take `Nc1ncnc2c1ncn2CCCN1CCC(COc2ccccc2)CC1`: the melting point fell in the range of 142 to 144 °C. For `COC(=O)CCc1ccc(-n2cnn(CCC3CCN(C(=O)OC(C)(C)C)CC3)c2=O)cc1`, the melting point was in the range of 139 to 141 °C.

On to `CC1NCC(CO)CC1OC(=O)c1ccncc1` (stereo not given), for which the melting point lay within 126 to 128 °C.

For `Cc1ccc([N+](=O)[O-])cc1-c1ccccc1`, the melting point fell in the range of 69 to 71 °C. Next, `O=c1[nH]c(-c2ccccc2)c(F)c(=O)n1-c1ccc(OC(F)(F)F)cc1`: 295 to 303 °C; `CN1CC(CCN2CCN(c3ccccc3Cl)CC2)OC1=O` (stereo not given): 79.5 to 81.5 °C; `CCC1(C)CN(c2c(F)c(N)c3c(=O)c(C(=O)O)cn(C4CC4)c3c2OC)CCC1N` (stereo not given): 210 °C. Next, `CCc1cc2c(c(Cl)cc(=O)n2Cc2ccc(C(=O)O)cc2)c(CC)n1`: 250 to 253 °C; `COc1cc2c(cc1Cl)NC(=O)c1ccccc1S2`: 280 to 283 °C. On to `Cc1ccc(-c2nc(O)c(-c3ccccc3)s2)cc1`, for which the melting point fell in the range of 252 to 255 °C. Regarding `O=C(CN1CCN(c2ccccc2)CC1)N1CCC(CNCc2ccco2)(c2cccc(C(F)(F)F)c2)CC1`, the melting point stood at 119 °C. As for `C=C1CC2CC(O)CCC2(C)C2CC(O)C3(C)C(C(C)CCC(=O)O)CCC3C12` (stereo not given), the melting point was in the range of 199 to 202 °C.

Take `CC(C)(C)OC(=O)N1C(C(=O)O)CSC1c1cccnc1` (stereo not given): the melting point was 167 to 169 °C. Next, `COc1cccc2c(Cl)c(C)c(C)nc12`: 130 °C; `COc1cc(C2=C(c3cn(CCCNC(=O)C(N)CO)c4ccccc34)C(=O)NC2=O)cc(OC)c1OC` (stereo not given): 112 to 114 °C.

In turn, `CC(=O)N1CCS(=O)c2cccc(Cl)c2C1` (stereo not given) registered a melting point of 119 to 121 °C.
